Consider 4 compounds from publication doi:10.1101/2023.10.01.560353v1 (bioRxiv, 2023).

In brackets after ≈: the same amount, converted by molar mass. Peptide text beside a SMILES is read from it.

For one assay, the system named is A. baumannii ATCC19606. Nature of the assay: Outer membrane permeabilization, NPN uptake. The class given is cell-based, Acinetobacter baumannii. The note with it: peptide at its MIC; polymyxin B as positive control; three replicates.
Assay [1] concerns 11 clinically relevant bacterial pathogens. The assay can be described thus: MIC over the panel of pathogens. It counts as cell-based. The note with it: Table S17; lowest MIC over the strains tested.
Assay [2] has as its system A. baumannii ATCC 19606. The assay can be described thus: MIC, broth microdilution. It counts as cell-based, Acinetobacter baumannii. The following applies: broth microdilution in LB, 20 h at 37 °C, OD600; mean of three replicates. A general note: In broth dilution the organism is exposed to a series of concentrations in liquid medium.
In assay [3] the test system is A. baumannii ATCC 19606. Nature of the assay: Neutropenic thigh infection mouse model. The note with it: single intraperitoneal dose at MIC, n = 6. The class given is in vivo, CD-1 mice.

Regarding `CC[C@H](C)[C@H](NC(=O)[C@H](CO)NC(=O)CNC(=O)[C@H](CC(C)C)NC(=O)[C@H](CC(C)C)NC(=O)[C@H](CC(C)C)NC(=O)[C@H](CCCNC(=N)N)NC(=O)[C@H](CCCCN)NC(=O)[C@@H](NC(=O)[C@H](CO)NC(=O)[C@H](CC(N)=O)NC(=O)[C@@H](NC(=O)[C@H](CC(C)C)NC(=O)[C@@H](N)CC(C)C)[C@@H](C)CC)[C@@H](C)CC)C(=O)N[C@@H](CC(C)C)C(=O)O` [Arctodutin-1] (H-LLINSIKRLLLGSIL-OH), the “outer membrane permeabilization (NPN uptake)” value in the assay on A. baumannii ATCC19606 was “permeabilized the outer membrane”. Also, the “MIC (lowest MIC value obtained in the antimicrobial activity assays)” value (shortened to “MIC”) in assay [1] is 2000 mM (≈ 3330 mg/mL).

Regarding `CC[C@H](C)[C@H](N)C(=O)N[C@@H](Cc1ccccc1)C(=O)N[C@@H](CC(C)C)C(=O)N[C@@H](Cc1c[nH]cn1)C(=O)N[C@@H](CC(C)C)C(=O)N[C@@H](CCCCN)C(=O)N[C@H](C(=O)N[C@@H](CC(C)C)C(=O)N[C@@H](CCCCN)C(=O)N[C@H](C(=O)N[C@H](C(=O)N[C@@H](CCCNC(=N)N)C(=O)N[C@@H](CC(C)C)C(=O)N[C@@H](CC(C)C)C(=O)O)[C@@H](C)CC)[C@@H](C)CC)[C@@H](C)CC` [Elephasin-2] (H-IFLHLKILKIIRLL-OH), the “Minimal Inhibitory Concentration: A. baumannii ATCC19606” value in the assay on A. baumannii ATCC 19606 [2] was determined as 1 µmol/L. The “MIC” value in assay [1] was 1000 mM (≈ 1730 mg/mL). For the same compound, the “reduction of the bacterial load four days post-treatment” value in the assay with A. baumannii ATCC 19606 [3] is given as 3-4 orders of magnitude.

On to `CC[C@H](C)[C@H](NC(=O)[C@H](CO)NC(=O)[C@H](CCCNC(=N)N)NC(=O)[C@H](C)NC(=O)[C@H](Cc1c[nH]cn1)NC(=O)[C@H](CC(C)C)NC(=O)[C@H](CS)NC(=O)[C@H](C)NC(=O)[C@@H](N)CCCNC(=N)N)C(=O)N[C@@H](C)C(=O)N[C@@H](CCCNC(=N)N)C(=O)N[C@@H](CC(C)C)C(=O)N[C@@H](Cc1c[nH]cn1)C(=O)N[C@@H](CCCCN)C(=O)N[C@@H](CCCNC(=N)N)C(=O)N[C@@H](Cc1c[nH]c2ccccc12)C(=O)N[C@@H](CCCNC(=N)N)C(=O)N1CCC[C@H]1C(=O)N[C@H](C(=O)N[C@@H](Cc1c[nH]cn1)C(=O)N[C@@H](CCC(N)=O)C(=O)NCC(=O)N[C@@H](CC(C)C)C(=O)NCC(=O)N[C@@H](CC(C)C)C(=O)N[C@@H](CCCCN)C(=O)O)C(C)C` [Mammuthusin-2] (H-RACLHARSIARLHKRWRPVHQGLGLK-OH), for which the “Minimal Inhibitory Concentration: A. baumannii ATCC19606” value with A. baumannii ATCC 19606 [2] worked out at 32 µmol/L. Also, the “MIC” value in assay [1] is 32000 mM (≈ 97900 mg/mL). The “reduction of the bacterial load four days post-treatment” value in the assay with A. baumannii ATCC 19606 [3] is on record as 3-4 orders of magnitude.

In the case of `CC[C@H](C)[C@H](N)C(=O)N[C@@H](CO)C(=O)N[C@@H](CC(C)C)C(=O)N[C@@H](Cc1ccccc1)C(=O)N[C@H](C(=O)N[C@@H](CCCNC(=N)N)C(=O)N1CCC[C@H]1C(=O)N[C@@H](CC(C)C)C(=O)N[C@@H](C)C(=O)N[C@@H](CC(C)C)C(=O)NCC(=O)N[C@H](C(=O)N[C@@H](CCCNC(=N)N)C(=O)N[C@@H](CC(C)C)C(=O)O)C(C)C)[C@@H](C)CC` [Psephotellin-1] (H-ISLFIRPLALGVRL-OH), the “outer membrane permeabilization (NPN uptake)” value in the assay with A. baumannii ATCC19606 was “permeabilized the outer membrane”. For the same compound, the “MIC” value in assay [1] amounted to 16000 mM (≈ 25100 mg/mL).
